This is an account of results in patent US20060233873A1, “Dispersion of taste masked crystals or granules of active substances, chewable soft capsules filled with said dispersion, and process for preparing same” (priority 2003, published 2006).

SMILES strings stand for the structures. Bounds are passed on as bounds.

The series is described as follows: Solubility of the active in lipophilic vehicles at 25° C., HPLC method. To be noted: oil or lipid. Here is the method:
In this example, lipophilic vehicles with different solubilizing powers for dextromethorphan HBr were tested.

The solubility is the dissolved amount per volume that the medium holds. As for `COc1ccc2c(c1)[C@]13CCCC[C@@H]1[C@H](C2)N(C)CC3` [dextromethorphan HBr], the solubility is below 1 µg/mL (in Dimethicone 100 silicone oil), 120 µg/mL (in medium chain triglycerides Mygliol 812N), around 1 µg/mL (in paraffin oil) and around 6 µg/mL (in soya oil).
